Consider nine compounds from US9290463B2, “Radiolabeled compounds and uses thereof” (THE TRUSTEES OF COLUMBIA UNIVERSITY IN THE CITY OF NEW YORK, priority 2010, dated 2016).

In one assay the target is 5-HT1AR (Rattus norvegicus (Rat), UniProt P19327). Kind of assay: Endogenous changes of 5-HT measured with Compound E uptake and binding in pretreated rats. Type of assay: in vivo. The note with it: for SBR (specific binding ratio) of Compound E, change versus saline / SUV of Compound E, change versus saline: hippocampus, 90 min after Compound E i.v., pretreated rats. On the procedure: Endogenous changes of 5-HT measurement with Compound E: Rats were pretreated according to the group below, injected with 0.1 MBq (0.18±0.02 nmol/kg, i.v.) of Compound E, then killed by decapitation after 90 minutes. Blood was collected from the trunk, the brain was extracted and the striatum, hippocampus, frontal cortex and cerebellum were dissected. Brain regions were dissolved, plasma was separated from the blood and radioactivity concentrations were determined.
The uptake and binding of Compound E after injection differed by treatment condition. […] Changes in the specific binding ratio (SBR=(activity in ROI−activity in Cerebellum)/activity in Cerebellum) were significant in Fenfluramine 1 and 2.

The target in the next assay is human 5-HT1A receptor (Homo sapiens (Human), UniProt P08908). Description: Inhibition of [3H]-8-OH-DPAT binding in membranes from CHO-h5-HT1A cells. Conditions: 5 nM [3H]-8-OH-DPAT, read-out: Binding affinity value (Ki). How it is done: In Vitro Agonist Binding Assay.
Preparation of Membrane Fractions from CHO-h5-HT1A Cells. Membranes from CHO cells stably expressing the human 5-HT1A receptor at a density of 8 pmol/mg membrane protein with 5-HT2c receptor background were prepared. Cells were grown in DMEM/F-12 medium supplemented with 5% fatal bovine serum, 50 ig/mL geneticin, and 50 ig/mL hygromycin B in a humidified atmosphere of 5% CO2 until they reached confluence. Cells were harvested by centrifugation (800 g for 5 min) and homogenized using a polytron homogenizer (Polytron, CH-6010 Kreiens-Lu, Brinkman Instrument, Westbury, N.Y.) in buffer containing 20 mM HEPES, pH7.4, 3 mM MgCl2, and a cocktail of protease inhibitors (Sigma-Aldrich, St. Louis, Mo.) at 1:2000 dilution. The homogenate was centrifuged (Beckman Optima LE80K Ultracentrifuge) at 100 000 g for 15 min at 4° C. The pellet was suspended in the same buffer and recentrifuged. The final pellet was suspended in assay buffer containing 20 mM HEPES, pH 7.4, 3 mM MgCl2, 100 mM NaCl, and a mixture of protease inhibitors and stored at −70° C. Protein concentration was determined by detergent compatible colorimetric assay using DC Protein Assay Reagents as recommended by the manufacturer (Bio-Rad, Hercules, Calif.).
Inhibition of [^3H]-8-OH-DPAT Binding by A-D or 5-HT in Membranes. For inhibition experiments, the incubation medium consisted of 20 mM HEPES, pH 7.4, 4 mM CaCl2, 5 nM [^3H]-8-OH-DPAT, and 30 μg of membrane protein in the presence of different concentrations of […] or 5-HT. The assay mixture was incubated for 10 min at 30° C. The reaction was terminated by rapid filtration through Whatman GF/B filters followed by three washes with ice cold 20 mM HEPES buffer, pH 7.4, using a cell harvester (Brandel, M-24R Gaitherburg, Md.). Bound radioactivity was determined by liquid scintillation spectrometry (Beckman).

A further assay concerns the target 5-HT1A (Rattus norvegicus (Rat), UniProt P19327). Kind of assay: Ex vivo saturation binding of Compound E in rat brain regions. The note with it: hippocampus and frontal cortex, rats 90 min after i.v. injection, one binding-site model. On the procedure:
Ex vivo studies of compound E: Awake rats were injected in the tail vein with Compound E shown below:
Total mass injected was between 0.02 nmol/kg and 500 nmol/kg. All rats were decapitated after 90 minutes, based on time activity experiments with Compound E. The brains were extracted and brain regions were dissected, and then dissolved in Solvable (Packard). Blood was collected, and the plasma was separated. Radioactivity concentrations were determined by scintillation counting.
It was possible to saturate the 5-HT1A binding of Compound E in the frontal cortex and hippocampus. Data were best fitted with a one binding-site model. […] The cerebellum and plasma were unsaturable and no binding model could be fitted to the data.

The Ki is a measure of affinity in units of concentration, obtained from inhibition or displacement. As usually defined, the Kd is the constant that tells how readily two partners part at equilibrium. The low end stands for a tighter complex, the high end for a looser complex.

5-HT1AR, sequence (P19327 whole entry): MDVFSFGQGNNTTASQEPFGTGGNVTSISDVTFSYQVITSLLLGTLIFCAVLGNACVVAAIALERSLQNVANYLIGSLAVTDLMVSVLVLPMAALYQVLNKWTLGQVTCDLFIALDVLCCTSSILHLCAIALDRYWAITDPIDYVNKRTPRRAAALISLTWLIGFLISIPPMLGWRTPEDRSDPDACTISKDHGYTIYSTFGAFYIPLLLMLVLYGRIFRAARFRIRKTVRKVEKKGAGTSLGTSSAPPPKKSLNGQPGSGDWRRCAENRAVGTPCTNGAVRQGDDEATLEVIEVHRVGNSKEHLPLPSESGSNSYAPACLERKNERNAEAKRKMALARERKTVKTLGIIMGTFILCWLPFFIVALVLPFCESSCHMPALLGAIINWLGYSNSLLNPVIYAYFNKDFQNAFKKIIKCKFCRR
human 5-HT1A receptor, sequence (P08908 whole entry): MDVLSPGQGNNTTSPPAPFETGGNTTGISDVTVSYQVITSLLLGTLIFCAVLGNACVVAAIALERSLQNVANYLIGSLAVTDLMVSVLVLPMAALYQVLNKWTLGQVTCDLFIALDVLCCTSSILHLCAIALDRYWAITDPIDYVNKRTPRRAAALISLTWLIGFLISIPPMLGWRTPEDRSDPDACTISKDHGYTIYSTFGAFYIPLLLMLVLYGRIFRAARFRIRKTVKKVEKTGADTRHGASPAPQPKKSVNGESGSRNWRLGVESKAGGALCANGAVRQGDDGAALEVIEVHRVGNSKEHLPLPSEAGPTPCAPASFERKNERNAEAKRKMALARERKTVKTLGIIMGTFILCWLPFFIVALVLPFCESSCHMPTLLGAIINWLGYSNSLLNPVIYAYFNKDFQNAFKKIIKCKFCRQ
5-HT1A, sequence (P19327 whole entry): as the sequence (P19327 whole entry) above

With “Isoflurane [Isoflurane, 1-3% (Inhaled) + Saline]”, on 5-HT1AR, the “SBR (specific binding ratio) of Compound E, change versus saline” value is on record as −4.6% and the “SUV of Compound E, change versus saline” value is given as “+52.1%”. In addition, the “Change in uptake of Compound E by treatment condition” value (“Change in uptake of Compound E” below) at 5-HT1AR (in words) is “Significant changes in uptake”. As to `CCNC(C)Cc1cccc(C(F)(F)F)c1` (centres unmarked) [Fenfluramine], on 5-HT1AR, the “SBR (specific binding ratio) of Compound E, change versus saline” value was “+32.8%” and the “SUV of Compound E, change versus saline” value was −0.1%. For the same compound, on 5-HT1AR (in words), the “Change in specific binding ratio of Compound E by treatment condition” value was “significant” and the “Change in uptake of Compound E” value is given as “Significant changes in uptake”. Consider `CN(C)CCCC1(c2ccc(F)cc2)OCc2cc(C#N)ccc21` (centres unmarked) [Citalopram], for which, on 5-HT1AR, the “SBR (specific binding ratio) of Compound E, change versus saline” value is reported as −12.2% and the “SUV of Compound E, change versus saline” value was “+4.8%”. Regarding `Cn1c(=O)cnn(CCCCN2CCN(c3cccc(Br)n3)CC2)c1=O`, the Ki at human 5-HT1A receptor worked out at 4 nM. For the compound `NC(Cc1ccc(Cl)cc1)C(=O)O` (centres unmarked) [Single Housed + pCPA, pCPA], at 5-HT1AR, the “SBR (specific binding ratio) of Compound E, change versus saline” value is reported as −15.1% and the “SUV of Compound E, change versus saline” value is given as −14.1%. The “Change in uptake of Compound E” value on 5-HT1AR (in words) was “Significant changes in uptake”. With `Cn1c(=O)cnn(CCCCN2CCN(c3ccccc3Br)CC2)c1=O`, the Ki at human 5-HT1A receptor came to 6 nM. For `[3H]COc1ccccc1N1CCN(CCCCn2ncc(=O)n(C)c2=O)CC1` [Compound E], the Kd at 5-HT1A was 17 to 18 nM. Turning to `[3H]COc1ccccc1N1CCN(CCCCn2ncc(=O)n(C)c2=O)CC1` [drawing 34], the Ki at human 5-HT1A receptor was found to be 0.15 nM. `Cn1c(=O)cnn(CCCCN2CCN(c3cccc(I)n3)CC2)c1=O`: the Ki at human 5-HT1A receptor was 5.5 nM.
